In PubChem BioAssay (NCI) one finds GI50 and TGI data, which are given here for 12 compounds.

Among the test systems are A549 NSCLC; MDA-MB-435; COLO 205 colon; SF-295 CNS; NCI-H522 lung; MDA-MB-231 breast; NCI/ADR-RES ovarian; EKVX NSCLC; MALME-3M melanoma; TK-10 renal.
Assay in all cases: NCI-60 cell line screen, 48 h

Molecules are shown by their SMILES.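 Grown in 96-well plates, cells were treated for 48 hours with each compound at five concentrations. Insufficient inhibition: endpoint recorded as highest concentration tested. At the GI50, growth is halved. TGI: total growth inhibition.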

On to `CCN(CC)CCOc1nc2cc(OC)c(OC)cc2c2c1-c1ccc(OC)cc1C2=O`, for which the GI50 in the assay with A549 NSCLC is 1.48 µM; in the assay on MDA-MB-435 it was 13.3 µM; with COLO 205 colon, 11.5 µM; in the assay with SF-295 CNS, 0.117 µM; with NCI-H522 lung, 0.312 µM; in the assay on MDA-MB-231 breast it was 13 µM. In addition, the GI50 was 13.2 µM in the assay with NCI/ADR-RES ovarian, 14.2 µM with EKVX NSCLC, 21.1 µM in the assay with MALME-3M melanoma and 16.1 µM in the assay with TK-10 renal. Moreover, the TGI with A549 NSCLC came to 2.87 µM; with MDA-MB-435 it was 26 µM; in the assay on COLO 205 colon it was 24.6 µM; in the assay on SF-295 CNS, 0.597 µM; with NCI-H522 lung it was 18.7 µM; in the assay with MDA-MB-231 breast, 26.9 µM. In addition, the TGI was found to be 29.8 µM with NCI/ADR-RES ovarian, 28.1 µM in the assay on EKVX NSCLC, 36.9 µM with MALME-3M melanoma and 29.6 µM in the assay on TK-10 renal.

Regarding `O=S1(=O)CC(Br)C(Br)C1` (stereo not given), the GI50 in the assay on A549 NSCLC is 13.5 µM; with MDA-MB-435, 4.16 µM; with COLO 205 colon, 1.61 µM; with SF-295 CNS, 24.5 µM; in the assay on NCI-H522 lung, 1.99 µM; in the assay on MDA-MB-231 breast, 3.15 µM. Further, the GI50 with NCI/ADR-RES ovarian was 5.26 µM; in the assay with EKVX NSCLC it was 18.5 µM; in the assay on MALME-3M melanoma, 3.91 µM; in the assay on TK-10 renal it was 3.77 µM. Further, the TGI in the assay on A549 NSCLC was 28.9 µM; in the assay on MDA-MB-435 it was 18.6 µM; in the assay with COLO 205 colon, 3.17 µM; in the assay with SF-295 CNS, greater than 100 µM; in the assay on NCI-H522 lung, 3.86 µM; in the assay with MDA-MB-231 breast it was 10.3 µM. The TGI is greater than 100 µM in the assay on NCI/ADR-RES ovarian, 49.8 µM in the assay with EKVX NSCLC, 13.1 µM in the assay with MALME-3M melanoma and 11.9 µM in the assay on TK-10 renal.

Consider `Cc1nn2c(/C=C3\C(=O)Nc4ccccc43)c(C)nc2s1`, for which the GI50 with A549 NSCLC was 32.7 µM; in the assay on MDA-MB-435, 2.85 µM; in the assay on COLO 205 colon it was 5.33 µM; in the assay with SF-295 CNS it was 29.1 µM; with NCI-H522 lung it was 18.5 µM; in the assay on MDA-MB-231 breast, greater than 100 µM. Also, the GI50 in the assay on NCI/ADR-RES ovarian was 6.3 µM; in the assay with EKVX NSCLC, 74.1 µM; in the assay on MALME-3M melanoma, greater than 100 µM; in the assay with TK-10 renal it was 88.7 µM. Also, the TGI in the assay with A549 NSCLC is greater than 100 µM; with MDA-MB-435 it was greater than 100 µM; with COLO 205 colon it was 63.4 µM; in the assay on SF-295 CNS, greater than 100 µM; in the assay on NCI-H522 lung, greater than 100 µM; with MDA-MB-231 breast it was greater than 100 µM. Besides, the TGI in the assay on NCI/ADR-RES ovarian was 99 µM; in the assay with EKVX NSCLC, greater than 100 µM; in the assay with MALME-3M melanoma, greater than 100 µM; in the assay on TK-10 renal it was greater than 100 µM.

Consider `S=c1[nH]nc(SCc2ccccc2Cl)c2[nH]cnc12`, for which the TGI with A549 NSCLC, in the assay on MDA-MB-435, in the assay on COLO 205 colon, with SF-295 CNS, with NCI-H522 lung and with MDA-MB-231 breast was greater than 100 µM in each case. In addition, the TGI in the assay with NCI/ADR-RES ovarian, in the assay with EKVX NSCLC, in the assay with MALME-3M melanoma and with TK-10 renal was greater than 100 µM in each case.

For `CN1N=Nc2c(C(F)(F)F)nn(-c3ccccc3)c2N(C)C1=O`, the GI50 with A549 NSCLC was greater than 100 µM; in the assay with MDA-MB-435, greater than 100 µM; with COLO 205 colon it was greater than 47.9 µM; in the assay on SF-295 CNS it was greater than 100 µM; with NCI-H522 lung, greater than 100 µM; with MDA-MB-231 breast, greater than 100 µM. Further, the GI50 in the assay on NCI/ADR-RES ovarian, with EKVX NSCLC, with MALME-3M melanoma and with TK-10 renal was greater than 100 µM in each case. Further, the TGI in the assay with A549 NSCLC was greater than 100 µM; in the assay on MDA-MB-435, greater than 100 µM; with COLO 205 colon, greater than 70.4 µM; in the assay with SF-295 CNS, greater than 100 µM; with NCI-H522 lung, greater than 100 µM; in the assay on MDA-MB-231 breast it was greater than 100 µM. Besides, the TGI in the assay on NCI/ADR-RES ovarian, with EKVX NSCLC, with MALME-3M melanoma and in the assay on TK-10 renal was greater than 100 µM throughout.

On to `O=C(O)c1cc2c(c3ccsc13)-c1ccccc1CC2`, for which the GI50 in the assay with A549 NSCLC was 36.1 µM; in the assay with MDA-MB-435 it was 42.7 µM; in the assay on COLO 205 colon it was 40.5 µM; in the assay with SF-295 CNS, 29.5 µM; in the assay on NCI-H522 lung, 29 µM; in the assay with MDA-MB-231 breast, 27.6 µM. The GI50 was 33.7 µM in the assay with NCI/ADR-RES ovarian, 50.4 µM in the assay on EKVX NSCLC, 18.8 µM with MALME-3M melanoma and 30.3 µM in the assay on TK-10 renal. The TGI was greater than 100 µM in the assay on A549 NSCLC; greater than 100 µM in the assay on MDA-MB-435; greater than 100 µM with COLO 205 colon; greater than 100 µM with SF-295 CNS; 82.1 µM in the assay with NCI-H522 lung; greater than 100 µM in the assay on MDA-MB-231 breast. The TGI in the assay with NCI/ADR-RES ovarian was greater than 100 µM; in the assay on EKVX NSCLC it was greater than 100 µM; in the assay on MALME-3M melanoma, 59.6 µM; in the assay with TK-10 renal, 98.9 µM.

As to `N#C/C(=C\c1cccnc1)c1nc2ccccc2o1`, the GI50 in the assay on A549 NSCLC, in the assay with MDA-MB-435, in the assay on COLO 205 colon, in the assay with SF-295 CNS, in the assay on NCI-H522 lung and with MDA-MB-231 breast was greater than 100 µM each time. Further, the GI50 in the assay with NCI/ADR-RES ovarian was greater than 100 µM; with EKVX NSCLC it was greater than 100 µM; in the assay with MALME-3M melanoma, 21.8 µM; in the assay on TK-10 renal, greater than 100 µM. The TGI in the assay with A549 NSCLC, in the assay with MDA-MB-435, in the assay on COLO 205 colon, in the assay with SF-295 CNS, in the assay with NCI-H522 lung and in the assay on MDA-MB-231 breast was greater than 100 µM in each case. Moreover, the TGI in the assay on NCI/ADR-RES ovarian, in the assay with EKVX NSCLC, in the assay with MALME-3M melanoma and with TK-10 renal was greater than 100 µM throughout.

With `COc1cccc2ccc3c(c12)C(=O)OC31CCc2c(C)cccc21` (stereo not given), the TGI was greater than 46.4 µM in the assay on A549 NSCLC; greater than 100 µM in the assay on MDA-MB-435; greater than 46.4 µM in the assay with COLO 205 colon; greater than 46.4 µM in the assay with SF-295 CNS; greater than 31.6 µM in the assay on NCI-H522 lung; greater than 100 µM in the assay with MDA-MB-231 breast. The TGI in the assay on NCI/ADR-RES ovarian was greater than 100 µM; with EKVX NSCLC, greater than 46.4 µM; in the assay on MALME-3M melanoma it was greater than 46.4 µM; in the assay with TK-10 renal, greater than 100 µM.

Regarding `COc1cc(/C=C/c2cc(/C=C/c3ccc(O)c(OC)c3)[nH]c(=O)n2)ccc1O`, the GI50 in the assay with A549 NSCLC is 5.2 µM; in the assay on MDA-MB-435, 2.72 µM; in the assay with COLO 205 colon, 2.03 µM; with SF-295 CNS it was 2.75 µM; in the assay on NCI-H522 lung, 2.57 µM; with MDA-MB-231 breast, 3.59 µM. In addition, the GI50 in the assay on NCI/ADR-RES ovarian is 16.7 µM; in the assay on EKVX NSCLC, 3.89 µM; in the assay with MALME-3M melanoma, 3.91 µM; with TK-10 renal it was 6.13 µM. Further, the TGI was 27.6 µM in the assay with A549 NSCLC; 18.2 µM with MDA-MB-435; 4.03 µM in the assay on COLO 205 colon; 9.87 µM in the assay with SF-295 CNS; 7.95 µM with NCI-H522 lung; greater than 100 µM in the assay with MDA-MB-231 breast. Further, the TGI was greater than 100 µM in the assay on NCI/ADR-RES ovarian, 72.8 µM with EKVX NSCLC, greater than 100 µM with MALME-3M melanoma and 36 µM in the assay on TK-10 renal.

For the compound `CC(=O)Nc1cc2cc(NS(=O)(=O)c3cc(C(F)(F)F)cc(C(F)(F)F)c3)ccc2oc1=O`, the TGI in the assay with A549 NSCLC, in the assay on MDA-MB-435, with COLO 205 colon, in the assay on SF-295 CNS, in the assay with NCI-H522 lung and with MDA-MB-231 breast was greater than 100 µM in each case. In addition, the TGI in the assay on NCI/ADR-RES ovarian, with EKVX NSCLC, in the assay on MALME-3M melanoma and in the assay on TK-10 renal was greater than 100 µM each time.

Take `C=C(C)[C@@H]1CC[C@]2(C)[C@H](CC=C3[C@@H]4[C@H](C)[C@@H](C)CC[C@]4(CO)CC[C@]32C)[C@@]1(C)CCCN`: the GI50 with A549 NSCLC was 1.59 µM; in the assay with MDA-MB-435, 0.953 µM; with COLO 205 colon, 0.899 µM; with SF-295 CNS, 0.847 µM; in the assay on NCI-H522 lung, 1.04 µM; in the assay with MDA-MB-231 breast, 0.957 µM. In addition, the GI50 is 0.986 µM in the assay with NCI/ADR-RES ovarian, 1.08 µM in the assay on EKVX NSCLC, 0.734 µM in the assay with MALME-3M melanoma and 2.21 µM in the assay with TK-10 renal. The TGI with A549 NSCLC was 5.11 µM; with MDA-MB-435, 1.81 µM; in the assay with COLO 205 colon, 1.94 µM; in the assay on SF-295 CNS, 1.58 µM; in the assay on NCI-H522 lung, 2.17 µM; in the assay on MDA-MB-231 breast, 1.71 µM. The TGI in the assay with NCI/ADR-RES ovarian came out at 2.17 µM; with EKVX NSCLC, 2.94 µM; in the assay on MALME-3M melanoma it was 1.42 µM; with TK-10 renal it was 9.75 µM.

As to `C[C@H]1CC2=CC(=O)CC[C@]2(C)[C@H]2CC[C@@]3(C)[C@@H](CC[C@]3(C)O)[C@H]12`, the GI50 is 31.9 µM with A549 NSCLC; 29.3 µM in the assay on MDA-MB-435; 15.8 µM in the assay with COLO 205 colon; 21.4 µM with SF-295 CNS; 28.4 µM in the assay with NCI-H522 lung; 35 µM in the assay on MDA-MB-231 breast. Also, the GI50 in the assay on NCI/ADR-RES ovarian is 28.7 µM; in the assay with EKVX NSCLC, 11.3 µM; in the assay on MALME-3M melanoma, 26 µM; in the assay with TK-10 renal, 31.5 µM. Besides, the TGI in the assay on A549 NSCLC is greater than 100 µM; in the assay on MDA-MB-435, greater than 88 µM; in the assay with COLO 205 colon it was 36.1 µM; in the assay with SF-295 CNS it was 62.5 µM; in the assay with NCI-H522 lung it was 75.5 µM; in the assay with MDA-MB-231 breast it was greater than 100 µM. Moreover, the TGI was greater than 86.5 µM with NCI/ADR-RES ovarian, greater than 100 µM in the assay on EKVX NSCLC, greater than 92.4 µM in the assay with MALME-3M melanoma and 97.5 µM in the assay with TK-10 renal.
